Values of other authors, collected in patent US20250090476A1, “PHARMACEUTICAL COMPOSITION AND BREXPIPRAZOLE ORALLY SOLUABLE FILM” (WISDOM PHARMACEUTICAL CO., LTD., priority 2022, published 2025).

solubility: low
SMILES: O=c1ccc2ccc(OCCCCN3CCN(c4cccc5sccc45)CC3)cc2[nH]1 [Brexpiprazole]
